Results taken from patent US20150290176A1, “USE OF MTOR INHIBITORS TO TREAT VASCULAR COGNITIVE IMPAIRMENT” (THE BOARD OF REGENTS OF THE UNIVERSITY OF TEXAS SYSTEM, priority 2012, published 2015).
Read-outs that look alike come from different tables or passages of the source.

Tests used:
AD mice = test: Cerebral blood flow by MRI continuous arterial spin labeling; format: in vivo, mouse; details: rapamycin-fed 16 weeks, then L-NAME for 4 additional weeks
Description: Rapamycin treatment. Mice were fed chow containing either microencapsulated enteric-coated rapamycin at 2.24 mg/kg or a control diet as described by Harrison et al., 2009. Rapamycin was used at 14 mg per kg food (verified by HPLC). On the assumption that the average mouse weighs 30 gm and consumes 5 gm of food/day, this dose supplied 2.24 mg rapamycin per kg body weight/day (Harrison, et al., 2009). All mice were given ad libitum access to rapamycin or control food and water for the duration of the experiment. Body weights and food intake were measured weekly. […] Littermates (transgenic and non-transgenic mice) were housed together, thus we could not distinguish effects of genotype on food consumption. […]
Animal Preparation for Functional Neuroimaging. […] Respiration rate (90-130 bpm) and rectal temperature (37±0.5° C.) were continuously monitored. Heart rate and blood oxygen saturation level (SaO2) were recorded using a MouseOx system (STARR Life Science Corp., Oakmont, Pa.) and maintained within normal physiological ranges.
Cerebral Blood Flow. Quantitative CBF (with unit of […]) was measured using the MRI based continuous arterial spin labeling (CASL) techniques (Duong, et al., 2000; Muir, et al., 2008) on a horizontal 7T/30 cm magnet and a 40G/cm BGA12S gradient insert (Bruker, Billerica, Mass.). […]

cortical vessels = test: In vivo 2-photon imaging of cortical vessel diameter; set-up: species or system mouse
Excerpt: (§1) In vivo imaging experiments. Details of experimental procedures were identical to our previously published protocols (Zheng, et al., 2010). Briefly, mice were anesthetized with volatile isoflurane through a nosecone (3% induction, 1.5% maintenance). The depth of anesthesia was monitored by regular checking of whisker movement and the pinch withdrawal reflex of the hind limb and tail. Also, during surgery and imaging, three main vital signs including heart rate, respiratory rate, and oxygen saturation were periodically assessed by use of the MouseOx system (STARR Life Sciences). Body temperature was maintained at 37° C. by use of feedback-controlled heating pad (Gaymar T/Pump). Initially, the scalp was shaved, incised along the midline and retracted to expose the dorsal skull. Then removal of periosteum by forceps and cleaning of skull by a sterile cotton swab were performed. A stainless steel head plate was glutted (VetBond, 3M, St. Paul, Minn.) to dorsal skull and screwed to a custom-made stereotaxic frame. To create a thin-skull cranial window over the somotosensory cortex, skull was initially thinned by high-speed electric drill (Fine Science Tools, Foster City, Calif.) and subsequently thinned to approximate 50 μm by using a surgical blade under a dissecting microscope (Nikon SMZ800). […] The diameter of blood vessels was analyzed by Image J plugin vessel diameter. […]

[1] = tested on: NO production in cortical vessels; test: In vivo imaging of NO production in cortical vessels with NO-sensitive probe DAF-FM; set-up: species or system mouse; details: L-NAME 30 mg/kg intraperitoneally before rapamycin
Excerpt: as §1

[2] = Rapamycin levels in brain regions of AD mice chronically fed rapamycin-supplemented chow; format: in vivo; details: PDAPP transgenic (AD mice), mouse, oral, 2.24 mg/kg body weight/day, AD mice chronically fed rapamycin chow (2.24 mg/kg/day)
Description: The inventors used magnetic resonance imaging (MRI) arterial spin labeling (ASL) techniques in vivo, as well as other functional imaging, in vivo optical imaging, and behavioral and biochemical tools to determine whether rapamycin treatment affects the progression of established deficits in the transgenic PDAPP mouse model of Alzheimer's Disease (Galvan, et al., 2005; Hsia, et al., 1999; Mucke, et al., 2000) (“AD mice”). AD mice and unaffected littermates were treated with rapamycin after the onset of AD-like impairments at 7 months of age (Galvan, et al., 2005; Hsia, et al., 1999; Mucke, et al., 2000) for a total of 16 weeks. Rapamycin levels in brain regions of AD mice chronically fed with rapamycin ranged from 0.98 to 2.40 pg/mg. Levels in hippocampus were 1.55 pg/mg (see FIG. 5).
Rapamycin treatment. Mice were fed chow containing either microencapsulated enteric-coated rapamycin at 2.24 mg/kg or a control diet as described by Harrison et al., 2009. Rapamycin was used at 14 mg per kg food (verified by HPLC). On the assumption that the average mouse weighs 30 gm and consumes 5 gm of food/day, this dose supplied 2.24 mg rapamycin per kg body weight/day (Harrison, et al., 2009). All mice were given ad libitum access to rapamycin or control food and water for the duration of the experiment. Body weights and food intake were measured weekly. […]

[3] = Body weight and food intake during rapamycin feeding; format: in vivo, mouse
Description: Rapamycin treatment. Mice were fed chow containing either microencapsulated enteric-coated rapamycin at 2.24 mg/kg or a control diet as described by Harrison et al., 2009. Rapamycin was used at 14 mg per kg food (verified by HPLC). On the assumption that the average mouse weighs 30 gm and consumes 5 gm of food/day, this dose supplied 2.24 mg rapamycin per kg body weight/day (Harrison, et al., 2009). All mice were given ad libitum access to rapamycin or control food and water for the duration of the experiment. Body weights and food intake were measured weekly. […] Littermates (transgenic and non-transgenic mice) were housed together, thus we could not distinguish effects of genotype on food consumption. Even though there were no differences in food consumption, body weights of rapamycin-fed non-transgenic, but not transgenic, females increased moderately during treatment, (6.8% increase for rapamycin-fed vs control-fed non-transgenic females). The higher increase in body weight for non-transgenic animals is not unexpected, since non-transgenic animals of both genders tend to be slightly (1-3 g) heavier than AD transgenic.

Row | SMILES | CBF in rapamycin-fed AD mice injected with L-NAME (AD mice) | Effect of L-NAME pretreatment on rapamycin-induced vasodilation (cortical vessels; L-NAME 30 mg/kg intraperitoneally before rapamycin) | Effect of L-NAME pretreatment on rapamycin-induced NO release [1] | concentration at 16 weeks ([2]; hippocampus, read-out: Rapamycin levels in hippocampus) | concentration at 16 weeks ([2]; range over brain regions, read-out: Rapamycin levels in brain regions) | Increase in diameter of small and medium-sized cortical vessels (cortical vessels; rapamycin 10 mg/kg intraperitoneally, 10 min after administration) | Food consumption ([3]; control- vs rapamycin-fed groups) | Body weight increase, rapamycin-fed vs control-fed ([3]; non-transgenic females, during treatment)
1 | COC(=O)[C@@H](N)CCCNC(=N)N[N+](=O)[O-] [L-NAME, L-NG-Nitroarginine methyl ester] | CBF deficits comparable to control-fed AD mice | abrogated | abrogated | – | – | – | – | –
2 | CO[C@H]1C[C@@H]2CC[C@@H](C)[C@@](O)(O2)C(=O)C(=O)N2CCCC[C@H]2C(=O)O[C@H]([C@H](C)C[C@@H]2CC[C@@H](O)[C@H](OC)C2)CC(=O)[C@H](C)/C=C(\C)[C@@H](O)[C@@H](OC)C(=O)[C@H](C)C[C@H](C)/C=C/C=C/C=C/1C [rapamycin] | – | – | – | 1.55 ng/g | 0.98 to 2.4 ng/g | 23-35% | comparable | 6.8%
